Measurements from US20250353891A1 (MEDIMMUNE LIMITED, priority 2022, published 2025).
Where two headings read alike, the source gives them in different places. Starred links: 1 amine or outer side, 2 acyl side, 3 side chain; linkers in the order of their positions; H or OH if unused. Non-standard residues stand in square brackets, D forms with d. Residues, ends and D or L forms follow the SMILES beside them. Groups on a side chain read outwards from the residue. *: point of attachment. C20 diacid = O=C(O)CCCCCCCCCCCCCCCCCCC(=O)*; C18 diacid = O=C(O)CCCCCCCCCCCCCCCCC(=O)*; γGlu = O=C(O)[C@H](CCC(=O)[*:2])N[*:1]; αMeF = C[C@](N)(Cc1ccccc1)C(=O)O; AEEA = NCCOCCOCC(=O)O; Aib = CC(C)(N)C(=O)O

Assays:
[1] = target: human GLP-1 receptor (hGLP-1R) (Homo sapiens, UniProt P43220); test: cAMP production (HTRF) in CHO cells expressing hGLP-1R; format: cell-based; parameters: expressed in transfected cells; conditions: for EC50: cAMP in CHO hGLP-1R cells, geometric mean, read-out: hGLP-1R EC50; for % Relative Potency Ratio: % GLP-1R activity relative to GLP-1 / % GlucR activity relative to glucagon
Procedure, shortened: (§1)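 Read-out: HTRF cAMP (anti-cAMP cryptate donor, cAMP-d2 acceptor in conjugate/lysis buffer), converted to % Delta F and fitted by 4-parameter logistic for EC50. Cell densities were 1×10^5 cells/mL (hGLP-1R) or 2×10^5 cells/mL (hGCGR). Stimulation lasted 30 min at room temperature.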

[2] = target: human glucagon receptor (hGCGR) (Homo sapiens, UniProt P47871); test: cAMP production (HTRF) in CHO cells expressing hGCGR; format: cell-based; parameters: expressed in transfected cells; conditions: cAMP in CHO hGCGR cells, geometric mean, read-out: hGluc-R EC50
Procedure, shortened: as §1

[3] = Proteolytic resistance to FasSSGF containing porcine pancreatic pepsin; format: in vitro ADME; conditions: pig, simulated gastric fluid
Description: Stimulated Gastric Fluid (FasSSGF) Containing Porcine Pancreatic Pepsin Lyophilized porcine pancreatic pepsin (Sigma: P7012) was reconstituted to 0.5 mg/mL (˜2500 units/mL) in freshly prepared FasSSGF (Biorelevant media) to give the enzyme stock solution. Peptide stock solution was prepared to a concentration of 250 μM (˜1.0 mg/mL) in FasSSGF. 200 μL ([…], ˜250 units) of pepsin stock solution was added to 200 μL of peptide solution (1.0 mg/mL, ˜100 μg of peptide, ˜25 nmoles) and the mixture was co-incubated in a temperature-regulated incubator at 37° C. for the duration of the experiment. 30 μL aliquot of the peptide-enzyme mixture was periodically withdrawn (t=0, 5, 10, 15, and 30 min) and quenched immediately by addition of 80 μL of 0.1M ammonium bicarbonate solution in water/acetonitrile (4:1, pH 8) to arrest proteolytic activity. 30 μL aliquot was analyzed by analytical RP-HPLC. Analytical RP-HPLC method: Agilent Polaris C8-A column (4.6×100 mm, 3 micron) eluted with a linear binary gradient of 10-90% MeCN (0.1% TFA v/v) in water (0.1% TFA v/v) over either 10 or 15 mins at 1.5 mL min-1 at 40° C. with detection by UV absorption at 210 nm. Manual integration (AUC) allowed estimation of remaining intact peptide over the time course of the experiment.

recombinant Neprilysin = target: T1, recombinant Neprilysin (Homo sapiens, UniProt P08473); test: Proteolytic resistance to neprilysin; format: in vitro ADME; conditions: pH 8.3; for remaining at 4 h / remaining at 24 h: isolated enzyme neprilysin
T1 construct: purchased R&D Systems 1182-ZNC-010
Description: 10.0 μg (˜10 units) recombinant Neprilysin (R&D Systems: 1182-ZNC-010) was reconstituted to 100 μL (100 μg/mL, ˜100 units/mL) in assay buffer (50 mM Tris, 50 mM NaCl, 50 mM NaHCO3, adjusted to pH 8.3) to give the enzyme stock solution. Peptide stock solutions were prepared to a concentration of ˜250 μM (˜1.0 mg/mL of 4 kDa peptide) in assay buffer. 100 μL (10 μg, ˜10 units) of neprilysin stock solution was added to 100 μL of peptide stock solution (1.0 mg/mL, ˜100 μg of peptide) and the mixture was co-incubated in a temperature regulated incubator at 37° C. for the duration of the experiment. 25 μL aliquots (˜ 12.5 μg initial peptide) of the peptide-enzyme mixture were periodically withdrawn (t=0, 30 mins, 1 h, 2 h, 4 h and 24 h) and quenched immediately by addition to an equal volume ([…]) of 10% TFA (v/v) in 1:1 water/acetonitrile to arrest proteolytic activity. The quenched aliquot centrifuged at 7800 rpm, and 30 μL of the supernatant was analyzed by analytical RP-HPLC as follows: Analytical RP-HPLC method: Agilent Polaris C8-A column (4.6×100 mm, 3 micron) eluted with a linear binary gradient of 10-90% MeCN (0.1% TFA v/v) in water (0.1% TFA v/v) over either 10 or 15 mins at 1.5 mL min-1 at 40° C. with detection by UV absorption at 210 nm. Manual integration (AUC) allowed estimation of remaining intact peptide over the time course of the experiment.

[4] = Table 6, peptides modified at position 17
[5] = Table 7, peptides modified at position 20

T1 sequence (P08473 52-750 limits assumed): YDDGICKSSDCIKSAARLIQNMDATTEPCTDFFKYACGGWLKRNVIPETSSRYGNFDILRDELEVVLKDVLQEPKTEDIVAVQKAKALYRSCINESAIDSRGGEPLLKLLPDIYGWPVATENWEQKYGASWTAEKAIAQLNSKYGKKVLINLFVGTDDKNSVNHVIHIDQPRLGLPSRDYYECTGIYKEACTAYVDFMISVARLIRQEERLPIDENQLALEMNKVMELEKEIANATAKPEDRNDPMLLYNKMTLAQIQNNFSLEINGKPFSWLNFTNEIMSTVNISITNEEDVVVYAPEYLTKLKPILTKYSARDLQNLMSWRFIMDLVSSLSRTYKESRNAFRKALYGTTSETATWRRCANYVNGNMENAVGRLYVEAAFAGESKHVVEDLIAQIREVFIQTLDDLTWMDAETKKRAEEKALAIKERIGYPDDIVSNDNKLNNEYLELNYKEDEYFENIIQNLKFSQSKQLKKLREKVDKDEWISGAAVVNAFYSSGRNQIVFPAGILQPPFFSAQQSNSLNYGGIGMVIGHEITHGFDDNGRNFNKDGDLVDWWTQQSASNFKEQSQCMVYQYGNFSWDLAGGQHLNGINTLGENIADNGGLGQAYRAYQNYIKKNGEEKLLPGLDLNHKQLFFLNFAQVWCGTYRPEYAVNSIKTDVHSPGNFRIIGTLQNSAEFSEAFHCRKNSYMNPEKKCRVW
human glucagon receptor (hGCGR), sequence (P47871 26-477): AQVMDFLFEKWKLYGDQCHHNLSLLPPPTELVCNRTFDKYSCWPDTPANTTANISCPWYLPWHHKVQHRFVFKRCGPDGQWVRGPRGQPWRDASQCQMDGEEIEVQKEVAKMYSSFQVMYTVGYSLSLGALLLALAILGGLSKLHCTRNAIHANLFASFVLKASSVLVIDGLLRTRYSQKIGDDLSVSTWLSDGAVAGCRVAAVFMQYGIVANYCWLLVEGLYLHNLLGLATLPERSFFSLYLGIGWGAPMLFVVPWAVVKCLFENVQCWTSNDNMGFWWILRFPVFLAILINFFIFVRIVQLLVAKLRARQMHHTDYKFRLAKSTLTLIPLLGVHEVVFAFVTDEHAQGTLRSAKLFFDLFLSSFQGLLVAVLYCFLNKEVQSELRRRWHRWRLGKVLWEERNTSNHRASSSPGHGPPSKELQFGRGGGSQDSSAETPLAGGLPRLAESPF
human GLP-1 receptor (hGLP-1R), sequence (P43220 24-463): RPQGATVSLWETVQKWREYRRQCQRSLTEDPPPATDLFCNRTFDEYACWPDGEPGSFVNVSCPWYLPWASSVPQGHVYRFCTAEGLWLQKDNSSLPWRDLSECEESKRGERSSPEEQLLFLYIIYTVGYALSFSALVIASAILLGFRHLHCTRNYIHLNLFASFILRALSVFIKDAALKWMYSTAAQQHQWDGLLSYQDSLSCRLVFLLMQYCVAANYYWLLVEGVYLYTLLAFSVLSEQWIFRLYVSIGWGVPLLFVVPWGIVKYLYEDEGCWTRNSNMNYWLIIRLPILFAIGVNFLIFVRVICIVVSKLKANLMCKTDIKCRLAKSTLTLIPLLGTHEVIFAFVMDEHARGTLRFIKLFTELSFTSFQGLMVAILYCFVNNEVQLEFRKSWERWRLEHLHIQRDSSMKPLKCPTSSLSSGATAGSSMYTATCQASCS

| EC50 [1, 4] [pM] | % Relative Potency Ratio ([1]; Table 6) | EC50 [2, 4] [pM] | remaining at 0.25 h, 125 µM [3] [%] | remaining at 0.5 h, 125 µM [3] [%] | remaining at 4 h (recombinant Neprilysin) [%] | remaining at 24 h (recombinant Neprilysin) [%] | % intact peptide over time (recombinant Neprilysin) [%] | EC50 [1, 5] [pM] | % Relative Potency Ratio ([1]; Table 7) | EC50 [2, 5] [pM] | Compound |
| --- | --- | --- | --- | --- | --- | --- | --- | --- | --- | --- | --- |
| 33.1 | 3.7 | 61.4 | 91 | 77 | 100 | 83 | 100 | – | – | – | CC[C@H](C)[C@H](NC(=O)C(C)(C)NC(=O)[C@H](CCC(=O)O)NC(=O)[C@@H](NC(=O)[C@](C)(Cc1ccccc1)NC(=O)[C@H](CC(=O)O)NC(=O)[C@H](CCCNC(=N)N)NC(=O)[C@H](C)NC(=O)[C@H](C)NC(=O)[C@H](CCCCNC(=O)COCCOCCNC(=O)COCCOCCNC(=O)CC[C@H](NC(=O)CCCCCCCCCCCCCCCCC(=O)O)C(=O)O)NC(=O)[C@H](CO)NC(=O)[C@H](CC(=O)O)NC(=O)[C@H](CC(C)C)NC(=O)[C@](C)(Cc1ccccc1)NC(=O)[C@H](CCCCN)NC(=O)[C@H](CO)NC(=O)[C@@H](NC(=O)[C@H](CC(=O)O)NC(=O)[C@H](CO)NC(=O)[C@@H](NC(=O)[C@](C)(Cc1ccccc1)NC(=O)[C@H](CO)NC(=O)CNC(=O)[C@H](Cc1c[nH]cn1)NC(=O)C(C)(C)NC(=O)[C@@H](N)Cc1c[nH]cn1)[C@@H](C)O)C(C)C)C(C)C)C(=O)N[C@@H](C)C(=O)N[C@@H](CC(N)=O)C(=O)N[C@H](C(N)=O)[C@@H](C)O [Peptide 15] (H-H[Aib]HGS[αMeF]TSDVSK[αMeF]LDSK([AEEA-AEEA-γGlu-C18 diacid])AARD[αMeF]VE[Aib]IANT-NH2; N-terminus assumed) |
| – | – | – | 83 | 76 | 100 | 97 | 100 | 1230 | 1.8 | 1140 | CC[C@H](C)[C@H](NC(=O)C(C)(C)NC(=O)[C@H](CCC(N)=O)NC(=O)[C@@H](NC(=O)[C@](C)(Cc1ccccc1)NC(=O)[C@H](CC(=O)O)NC(=O)[C@H](CCCCNC(=O)COCCOCCNC(=O)COCCOCCNC(=O)CC[C@H](NC(=O)CC[C@H](NC(=O)CCCCCCCCCCCCCCCCCCC(=O)O)C(=O)O)C(=O)O)NC(=O)[C@H](C)NC(=O)[C@H](C)NC(=O)[C@H](CCCNC(=N)N)NC(=O)[C@H](CO)NC(=O)[C@H](CC(=O)O)NC(=O)[C@H](CC(C)C)NC(=O)[C@](C)(Cc1ccccc1)NC(=O)[C@H](CCCCN)NC(=O)[C@H](CO)NC(=O)[C@@H](NC(=O)[C@H](CC(=O)O)NC(=O)[C@H](CO)NC(=O)[C@@H](NC(=O)[C@H](Cc1ccccc1)NC(=O)[C@H](CO)NC(=O)CNC(=O)[C@H](Cc1c[nH]cn1)NC(=O)C(C)(C)NC(=O)[C@@H](N)Cc1c[nH]cn1)[C@@H](C)O)C(C)C)C(C)C)C(=O)N[C@@H](C)C(=O)N[C@@H](CC(N)=O)C(=O)N[C@H](C(N)=O)[C@@H](C)O [Peptide 282] (H-H[Aib]HGSFTSDVSK[αMeF]LDSRAAK([AEEA-AEEA-γGlu-γGlu-C20 diacid])D[αMeF]VQ[Aib]IANT-NH2) |
| – | – | – | 68 | 48 | 81 | 63 | 100 | 129 | 8.4 | 552 | CC[C@H](C)[C@H](NC(=O)C(C)(C)NC(=O)[C@H](CCC(N)=O)NC(=O)[C@@H](NC(=O)[C@](C)(Cc1ccccc1)NC(=O)[C@H](CC(=O)O)NC(=O)[C@H](CCCCNC(=O)COCCOCCNC(=O)COCCOCCNC(=O)CC[C@H](NC(=O)CC[C@H](NC(=O)CCCCCCCCCCCCCCCCCCC(=O)O)C(=O)O)C(=O)O)NC(=O)[C@H](C)NC(=O)[C@H](C)NC(=O)[C@H](CCCNC(=N)N)NC(=O)[C@H](CO)NC(=O)[C@H](CC(=O)O)NC(=O)[C@H](CC(C)C)NC(=O)[C@H](Cc1ccc(O)cc1)NC(=O)[C@H](CCCCN)NC(=O)[C@H](CO)NC(=O)[C@@H](NC(=O)[C@H](CC(=O)O)NC(=O)[C@H](CO)NC(=O)[C@@H](NC(=O)[C@](C)(Cc1ccccc1)NC(=O)[C@H](CO)NC(=O)CNC(=O)[C@H](Cc1c[nH]cn1)NC(=O)C(C)(C)NC(=O)[C@@H](N)Cc1c[nH]cn1)[C@@H](C)O)C(C)C)C(C)C)C(=O)N[C@@H](C)C(=O)N[C@@H](CC(N)=O)C(=O)N[C@H](C(N)=O)[C@@H](C)O [Peptide 283] (H-H[Aib]HGS[αMeF]TSDVSKYLDSRAAK([AEEA-AEEA-γGlu-γGlu-C20 diacid])D[αMeF]VQ[Aib]IANT-NH2) |
| – | – | – | 0 | 0 | 77 | 59 | 100 | 27.5 | 1.9 | 26.5 | CC[C@H](C)[C@H](NC(=O)C(C)(C)NC(=O)[C@H](CCC(N)=O)NC(=O)[C@@H](NC(=O)[C@H](Cc1ccccc1)NC(=O)[C@H](CC(=O)O)NC(=O)[C@H](CCCCNC(=O)COCCOCCNC(=O)COCCOCCNC(=O)CC[C@H](NC(=O)CCCCCCCCCCCCCCCCC(=O)O)C(=O)O)NC(=O)[C@H](C)NC(=O)[C@H](C)NC(=O)[C@H](CCCNC(=N)N)NC(=O)[C@H](CO)NC(=O)[C@H](CC(=O)O)NC(=O)[C@H](CC(C)C)NC(=O)[C@](C)(Cc1ccccc1)NC(=O)[C@H](CCCCN)NC(=O)[C@H](CO)NC(=O)[C@@H](NC(=O)[C@H](CC(=O)O)NC(=O)[C@H](CO)NC(=O)[C@@H](NC(=O)[C@](C)(Cc1ccccc1)NC(=O)[C@H](CO)NC(=O)CNC(=O)[C@H](Cc1c[nH]cn1)NC(=O)C(C)(C)NC(=O)[C@@H](N)Cc1c[nH]cn1)[C@@H](C)O)C(C)C)C(C)C)C(=O)N[C@@H](C)C(=O)N[C@@H](CC(N)=O)C(=O)N[C@H](C(N)=O)[C@@H](C)O [Peptide 287] (H-H[Aib]HGS[αMeF]TSDVSK[αMeF]LDSRAAK([AEEA-AEEA-γGlu-C18 diacid])DFVQ[Aib]IANT-NH2) |
| – | – | – | 0 | 0 | – | – | 100 | – | – | – | CC[C@H](C)[C@H](NC(=O)[C@H](Cc1c[nH]c2ccccc12)NC(=O)[C@H](CCC(N)=O)NC(=O)[C@@H](NC(=O)[C@H](Cc1ccccc1)NC(=O)[C@H](CC(=O)O)NC(=O)[C@H](CCCCNC(=O)COCCOCCNC(=O)COCCOCCNC(=O)CC[C@H](NC(=O)CC[C@H](NC(=O)CCCCCCCCCCCCCCCCCCC(=O)O)C(=O)O)C(=O)O)NC(=O)[C@H](C)NC(=O)[C@H](C)NC(=O)[C@H](CCCNC(=N)N)NC(=O)[C@H](CO)NC(=O)[C@H](CC(=O)O)NC(=O)[C@H](CC(C)C)NC(=O)[C@](C)(Cc1ccccc1)NC(=O)[C@H](CCCCN)NC(=O)[C@H](CO)NC(=O)[C@@H](NC(=O)[C@H](CC(=O)O)NC(=O)[C@H](CO)NC(=O)[C@@H](NC(=O)[C@H](Cc1ccccc1)NC(=O)[C@H](CO)NC(=O)CNC(=O)[C@H](Cc1c[nH]cn1)NC(=O)C(C)(C)NC(=O)[C@@H](N)Cc1c[nH]cn1)[C@@H](C)O)C(C)C)C(C)C)C(=O)N[C@@H](C)C(=O)N[C@@H](CC(N)=O)C(=O)N[C@H](C(N)=O)[C@@H](C)O [Peptide 290] (H-H[Aib]HGSFTSDVSK[αMeF]LDSRAAK([AEEA-AEEA-γGlu-γGlu-C20 diacid])DFVQWIANT-NH2) |
